Patent US20230143612A1 (Arbutus Biopharma Corporation, priority 2020, published 2023)

biological target: PD-L1 His protein / PD-1 Fc protein (Homo sapiens, UniProt Q9NZQ7); test: HTRF Assay (PD-1/PD-L1 interaction); assay type: binding; settings: PD-L1 His 6 nM, PD-1 Fc 6 nM
In short: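 Compounds tested from 20 μM down to 0.001 μM (3-fold) against 6 nM PD-L1 His and 6 nM PD-1 Fc, 15 min room temperature incubation. Detection after 1 h at room temperature with Tb cryptate anti-6HIS and XL665 anti-human IgG reagents (mixture at 0.35 nM and 6.7 nM), HTRF signal.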

PD-L1 His protein / PD-1 Fc protein, sequence (Q9NZQ7 19-238 limits assumed): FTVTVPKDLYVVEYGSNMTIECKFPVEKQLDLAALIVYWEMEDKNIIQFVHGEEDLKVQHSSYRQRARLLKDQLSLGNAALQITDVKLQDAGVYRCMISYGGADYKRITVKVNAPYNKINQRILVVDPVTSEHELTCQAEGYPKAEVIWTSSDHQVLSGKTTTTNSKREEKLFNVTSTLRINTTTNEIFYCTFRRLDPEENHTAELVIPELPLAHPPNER

Compared with `COc1nc(-c2cccc(-c3cccc(-c4ccn5c(=O)c(CN6CCC(CO)(CO)C6)cnc5c4)c3Cl)c2Cl)ccc1CNC[C@@H]1CCC(=O)N1` [Example 328, (S)-3-((3,3-Bis(hydroxymethyl)pyrrolidin-1-yl)methyl)-8-(2,2′-dichloro-3′-(6-methoxy-5-((((5-oxopyrrolidin-2-yl)methyl)amino)methyl)pyridin-2-yl)-[1,1′-biphenyl]-3-yl)-4H-pyrido[1,2-a]pyrimidin-4-one], `COc1nc(-c2cccc(-c3cccc(-c4ccn5c(=O)c(CNC[C@@H]6CCC(=O)N6)cnc5c4)c3Cl)c2Cl)ccc1CN1CC2(C(=O)O)CCC1CC2` [Example 122, (S)-2-((6-(2,2′-Dichloro-3′-(4-oxo-3-((((5-oxopyrrolidin-2-yl)methyl)amino)methyl)-4H-pyrido[1,2-a]pyrimidin-8-yl)-[1,1′-biphenyl]-3-yl)-2-methoxypyridin-3-yl)methyl)-2-azabicyclo[2.2.2]octane-4-carboxylic acid] is 8-fold higher in IC50: 0.1 nM for the first, 0.8 nM for the second. The first is the more potent here.

First: COc1nc(-c2cccc(-c3cccc(-c4cc5c(=O)n(C)c(CNCCC6CCC(=O)N6)nn5c4)c3Cl)c2Cl)ccc1CNC[C@@H]1CCC(=O)N1 (stereo partly drawn) [Example 451, 6-[2-Chloro-3-[2-chloro-3-[6-methoxy-5-[[[(2S)-5-oxopyrrolidin-2-yl]methylamino]methyl]-2-pyridyl]phenyl]phenyl]-3-methyl-2-[[2-(5-oxopyrrolidin-2-yl)ethylamino]methyl]pyrrolo [2,1-f][1,2,4]triazin-4-one]
Second: COc1nc(-c2cccc(-c3cccc(-c4ccn5nc(CNC[C@@H]6CCC(=O)N6)cc5n4)c3Cl)c2Cl)ccc1CNC[C@@H]1CCC(=O)N1 [Example 82, (S)-5-((((6-(2,2′-Dichloro-3′-(2-(((((S)-5-oxopyrrolidin-2-yl)methyl)amino)methyl)pyrazolo[1,5-a]pyrimidin-5-yl)-[1,1′-biphenyl]-3-yl)-2-methoxypyridin-3-yl)methyl)amino)methyl)pyrrolidin-2-one]
The IC50 of the first is 20-fold higher: 200 nM for the first, 9.9 nM for the second. The second is the more potent here.

Going from `Cc1c(COc2cc(OCc3cncc(C#N)c3)c(CN3CCCC[C@H]3C(=O)O)cc2Cl)cccc1-c1cccc(-c2ccn3c(=O)c(CN4CCCC[C@H]4C(=O)O)cnc3c2)c1C` [Example 11, (S)-1-((8-(3′-((4-(((S)-2-Carboxypiperidin-1-yl)methyl)-2-chloro-5-((5-cyanopyridin-3-yl)methoxy)phenoxy)methyl)-2,2′-dimethyl-[1,1′-biphenyl]-3-yl)-4-oxo-4H-pyrido[1,2-a]pyrimidin-3-yl)methyl)piperidine-2-carboxylic acid] to `COC(=O)C1(CNCc2cnc3cc(-c4cccc(-c5cccc(-c6ccc(CNC[C@@H]7CCC(=O)N7)c(OC)n6)c5Cl)c4Cl)ccn3c2=O)COC1` [Example 358, methyl (S)-3-((((8-(2,2′-dichloro-3′-(6-methoxy-5-((((5-oxopyrrolidin-2-yl)-methyl)-amino)-methyl)-pyridin-2-yl)-[1,1′-biphenyl]-3-yl)-4-oxo-4H-pyrido[1,2-a]pyrimidin-3-yl)-methyl)-amino)-methyl)oxetane-3-carboxylate], the IC50 falls from 0.6 nM to 0.1 nM (6-fold).

Going from `COc1nc(-c2cccc(-c3cccc(-c4ccn5c(=O)c(CNC[C@@H]6CCC(=O)N6)cnc5c4)c3Cl)c2Cl)ccc1C1=NCC(O)CN1` (stereo partly drawn) [Example 178, 8-(2,2′-Dichloro-3′-(5-(5-hydroxy-1,4,5,6-tetrahydropyrimidin-2-yl)-6-methoxypyridin-2-yl)-[1,1′-biphenyl]-3-yl)-3-(((((S)-5-oxopyrrolidin-2-yl)methyl)amino)methyl)-4H-pyrido[1,2-a]pyrimidin-4-one] to `COc1nc(-c2cccc(-c3cccc(-c4cnc(NCCNC(C)=O)c(OC)n4)c3Cl)c2Cl)cnc1NCCNC(C)=O` [Example 38, N,N′-((((2,2′-Dichloro-[1,1′-biphenyl]-3,3′-diyl)bis(3-methoxypyrazine-5,2-diyl))bis(azanediyl))bis(ethane-2,1-diyl))diacetamide], the IC50 rises from 3.5 nM to 20 nM (5.7-fold). The first is the more potent here.
